Molecules are shown by their SMILES. Entries after “also recorded” stand apart in the source; their conditions may differ.

A short description of experiment [1]: treatment of formed dye with reducing agent after the wound response was completed. The conditions noted are these: added after the wound response was completed. More on the design: species or system lettuce. As to the method:
As L-cysteine is known to react with o-quinones, which are PPO products, by converting them back into colourless diphenols, the effects of L-cysteine on the pink dye coming from lettuce leaf discs was determined. In parallel the effect of L-cysteine was determined on the melanin formation upon incubation with L-DOPA. Leaf discs were taken and incubated according to the procedures described above. After the wound response was completed, a concentration series of L-cysteine was added to the leaf disc and the change in colour was monitored.

Another experiment concerns lettuce leaf discs. The experiment can be described thus: leaf disc pinking assay (discs between wetted filter papers, 5° C., 7 days). The experiment is classed as cell-based. The conditions noted are these: for effect on output signal of the screen (brown or pink discolouration of the wound surface): FIG. 1 legend; for concentration at which the pink discolouration was completely inhibited: applied during the assay, 5° C., 7 days; for concentration at which the pink discolouration was completely inhibited / effect on pink discolouration (formation of the pink dye): lettuce leaf discs; for effect on pink discolouration (formation of the pink dye): applied during the reaction. As to the method:
One embodiment of this invention is based on the surprising finding that when discs from leaves, in particular lettuce leaves, are taken and incubated between wetted filter papers at 5° C., after approximately 4 days the formation of a pink dye at the edges of the leaf discs becomes apparent. Suitable filter paper is filter paper type 1450 CV, Ref no. 10 313 281 from Schleier & Schuell, Microscience GmbH, Dassel, Germany. Upon further incubation, the signal intensifies and after approximately one week the maximum intensity has been reached. The formation of the pink dye occurs specifically at wound surfaces.
A phenotypic assay was developed in which leaf discolouration of lettuce induced by wounding can readily be assessed. This approach allows young plant screening for discolouration. Leaf discs of 5 mm diameter were taken from young or mature plants and placed between wetted filter papers in a tray. The system was incubated at 5° C. for 7 days. During the incubation a pink dye developed at the wound site of the leaf disc which became clearly visible as a printed circle on the filter paper (FIG. 2).

For experiment [2], the system named is lettuce outer leaf midrib tissue discs. The experiment can be described thus: midrib disc browning assay (wetted filter paper, 16° C.). The experiment is classed as cell-based. The conditions noted are these: 10 mM L-cysteine, approximately 72 hours. As to the method:
Lettuce plants were grown to maturity and parts of outer leaves were taken by cutting discs from the rib tissue. The discs were incubated on wetted filter paper at 16° C. After approximately 72 hours, the wound surface had turned brown.

The subject of experiment [3] is field-grown lettuce plant. The experiment can be described thus: L-cysteine treatment of leaf discs from field-grown lettuce showing pinking. To be noted: 1 mM L-cysteine, approximately 30 minutes, room temperature. As to the method:
This is typically observed when plants have been stressed, for example by conditions of severe water logging. The leaf was used to prepare leaf discs which were incubated immediately by 1 mM L-cysteine.

The subject of another experiment is lettuce PPO. The experiment can be described thus: L-DOPA leaf disc assay (conversion of L-DOPA into melanin). The experiment is classed as cell-based. As to the method: In addition to assays which address wound-induced discolouration in a broad sense, the method according to this invention also allows to screen in a more specific manner for mutants which have a reduced PPO activity. A phenotypic assay which is indicative for PPO activity was developed by using leaf discs which were incubated in the presence of 1.5 mM L-DOPA. As a black discolouration became apparent it can be concluded that L-DOPA can readily be converted by the polyphenol oxidising system at the wound surface of lettuce leaves into a black pigment called melanine. L-DOPA is converted by PPO into the reactive L-DOPA-quinone which is converted non-enzymatically via dopachrome and indol quinone into the black melanin.

As for `N[C@@H](CCC(=O)N[C@@H](CS)C(=O)NCC(=O)O)C(=O)O` [glutathion], in experiment [1], the “effect on the pink dye already formed by lettuce leaf discs” value (“effect on the pink dye already formed” for short) is “convert the pink dye into a colourless compound”.
As to `O=CC=Cc1ccccc1` [cinnamaldehyde], in the experiment on lettuce leaf discs, the “effect on output signal of the screen (brown or pink discolouration of the wound surface)” value is “completely inhibited”, the “concentration at which the pink discolouration was completely inhibited” value was ≥ 0.01% and the “effect on pink discolouration (formation of the pink dye)” value (from here on “effect … (formation of the pink dye)”) is “formation of the pink dye was inhibited”.
As to `O=C1O[C@H]([C@@H](O)CO)C(O)=C1O` [ascorbic acid], the “effect on the pink dye already formed” value in experiment [1] is on record as “convert the pink dye into a colourless compound”.
On to `CC(C)C[C@H](N)C(=O)O` [L-leucine], for which the “effect … (formation of the pink dye)” value in the experiment on lettuce leaf discs is given as “did not show any effect”.
As for `N[C@@H](CS)C(=O)O` [L-cysteine], the “effect on browning response of wound surface” value in experiment [2] is on record as “completely be inhibited; also recorded: the browning response was inhibited”. Further, the “effect on pink discolouration of field-grown lettuce leaf” value in experiment [3] is “the pink discolouration is also eliminated; also recorded: the pink discolouration disappeared”. In experiment [1], the “effect on black melanin already formed in the L-DOPA assay” value is on record as “not affected” and the “effect on the pink dye already formed” value is “converted into a colourless compound; also recorded: converting the pink dye back into a colourless compound”. Further, in the experiment on lettuce leaf discs, the “effect on output signal of the screen (brown or pink discolouration of the wound surface)” value is “completely inhibited”, the “concentration at which the pink discolouration was completely inhibited” value is reported as ≥ 0.001% and the “effect … (formation of the pink dye)” value is given as “strongly suppressed the formation of the pink dye”. For the same compound, in the experiment on lettuce PPO (applied simultaneously with L-DOPA (1 mM L-cysteine elsewhere in the source)), the “effect on black discolouration (melanin formation from L-DOPA)” value was “completely inhibited; also recorded: can be inhibited”. Besides, the “concentration at which L-DOPA discolouration was completely inhibited” value in the experiment on lettuce PPO (applied simultaneously with L-DOPA, lettuce leaf discs) is ≥ 1 mM.
`C[C@H](N)C(=O)O` [L-alanine]: in the experiment with lettuce leaf discs, the “effect … (formation of the pink dye)” value was “did not show any effect”.

For the origin of these results see patent US8809631B2, “Screening method for selecting plants that show reduced wound-induced surface discolouration and plant and plant parts thus obtained” (Rijk Zwaan Zaadteelt en Zaadhandel B.V., priority 2007, dated 2014).
